Patent US11957683B2, “Bicyclic compounds” (Aligos Therapeutics, Inc., priority 2021, dated 2024)

How the values were obtained:
HBV = experiment: HBV-DNA antiviral assay using HepG2.117 cells; assay type: cell-based, HBV genotype D; settings: Hepatitis B virus, 72 h; HBV DNA inhibition, intracellular HBV DNA by qPCR, HepG2.117 cells, 3 days incubation; read-out: EC50
Procedure: (§1) The following assay procedure describes the HBV antiviral assay, using HepG2.117 cells, which carry a stably integrated genotype D HBV genome under the control of a Tet-off promoter, and intracellular HBV DNA quantification as endpoint. Cell viability is assessed in parallel by measuring the intracellular ATP content using CellTiter-Glo 2.0 (Promega).
On day 0, HepG2.117 cells (which are maintained in routine cell culture with doxycycline present in the medium at a final concentration of 1 μg/mL) are seeded in 96-well plates (white with clear bottom) at a density of 2.0×10^4 cells/well (0.1 mL/well) in medium without doxycycline to induce pgRNA transcription and subsequent formation of HBV particles. The cells are incubated at 37° C. and 5% CO2.
(§2) On day 1, medium is removed from each well, the test articles are diluted in culture medium without doxcycyline and 100 μL was added to cell culture wells (9 concentrations, 4-fold dilution). For each plate, 6 untreated (merely DMSO) wells are included. The final concentration of DMSO in the culture medium is 2%. Each plate is prepared in duplicate (one for HBV DNA extraction, one for CellTiter-Glo 2.0 measurement). The cells are incubated at 37° C. and 5% CO2 for 3 days.
(§3) On day 4, cell viability is assessed using CellTiter-Glo 2.0 and cell lysates are prepared for HBV DNA extraction and subsequent quantification by qPCR.
Medium is removed from each well and 100 μL of 0.33% NP-40 in H2O was added to each well. Plates are sealed, incubated at 4° C. for 5 mins, vortexed extensively and centrifuged briefly. Next, 35 μL of lysate is added to 65 μL QuickExtract DNA Extraction Solution (Epicentre) in a PCR plate for each well. PCR plate is incubated at 65° C. for 6 mins, 98° C. for 2 mins and finally cooled to 4° C. HBV DNA is then quantified by qPCR with HBV-specific primers and probes as specified in Table 2 using the Bio-Rad SSOAdvanced Universal Probes Supermix on a CFX96 machine (Bio-Rad). The PCR cycle program consisted of 95° C. for 3 mins, followed by 40 cycles at 95° C. for 10 sec and 60° C. for 30 sec.
A DNA standard is prepared by dilution of an IDT gBlock corresponding to the amplicon with concentrations ranging from 10^2 to 10^8 copies/input (i.e., per 4 μL) and used to generate a standard curve by plotting Cq values vs. HBV DNA standard concentration. The quantity of HBV DNA in each sample is determined by interpolating from the standard curve.
(§4) Cell viability is calculated as follows: % Cell viability=(luminescence value of test sample)/(average luminescence value of 2% DMSO control)×100%. HBV DNA inhibition was calculated as follows: 100−(HBV DNA copy number of test sample)/(average HBV DNA copy number of 2% DMSO control)×100%. No normalization to entecavir is required due to the excellent dynamic window of this assay. The CC50, EC50 and EC90 values were determined by dose-response curves fitted using non-linear regression.

[1] = Cell viability by CellTiter-Glo 2.0 (intracellular ATP) in HepG2.117 cells; assay type: cell-based; settings: human, CellTiter-Glo 2.0, HepG2.117 cells, 3 days incubation
Procedure: as §1, §2, §3
Using the other plates, the cell viability is quantified by CellTiter-Glo 2.0 according to the manufacturer's manual. In brief, 100 μL of reagent solution is added to the culture plates and shaken for 2′. The plates are incubated at rt for 10 min and luminescence signal is subsequently measured on a VarioSkan Lux (ThermoFisher) plate reader.
as §4

Row | SMILES | EC50 (HBV) [µM] | CC50 at 3 days [1] [µM]
1 | C=CCNc1nc2c(c(=O)n1-c1ccc(C(=O)NC)cc1)C[C@@H](C)N(C(=O)c1ccc(Br)c(C(F)(F)F)c1)C2 [Compound 5] | < 0.05 | > 50
2 | C=C[C@H](C)Nc1nc2c(c(=O)n1-c1ncc(C(=O)NC)cn1)C[C@@H](C)N(C(=O)c1ccc(Br)c(C(F)(F)F)c1)C2 [Compound 43, 2-[(6R)-7-[4-bromo-3-(trifluoromethyl)benzoyl]-6-methyl-2-[[(1S)-1-methylallyl]amino]-4-oxo-6,8-dihydro-5H-pyrido[3,4-d]pyrimidin-3-yl]-N-methyl-pyrimidine-5-carboxamide] | < 0.05 | > 50
3 | C=CC(C)Nc1nc2c(c(=O)n1-c1ccc(-c3[nH]nnc3C)cc1)C[C@@H](C)N(C(=O)c1ccc(Br)c(C(F)(F)F)c1)C2 (single isomer, unassigned) [Compound 3a] | < 0.05 | > 0.5
4 | CNC(=O)c1ccc(-n2c(C#CCC(C)C)nc3c(c2=O)C[C@@H](C)N(C(=O)c2ccc(Br)c(C(F)(F)F)c2)C3)cc1 [Compound 23, (R)-4-(7-(4-bromo-3-(trifluoromethyl)benzoyl)-6-methyl-2-(4-methylpent-1-yn-1-yl)-4-oxo-5,6,7,8-tetrahydropyrido[3,4-d]pyrimidin-3(4H)-yl)-N-methylbenzamide] | 0.05 to 0.5 | 11.7
5 | C=C[C@H](C)Nc1nc2c(c(=O)n1-c1ccc(-c3cnn(C)c3)cc1)C[C@@H](C)N(C(=O)c1ccc(Br)c(C(F)(F)F)c1)C2 [Compound 27, (R)-7-(4-bromo-3-(trifluoromethyl)benzoyl)-2-(((S)-but-3-en-2-yl)amino)-6-methyl-3-(4-(1-methyl-1H-pyrazol-4-yl)phenyl)-5,6,7,8-tetrahydropyrido[3,4-d]pyrimidin-4(3H)-one] | < 0.05 | 22.8
6 | C=CCN(C)c1nc2c(c(=O)n1-c1ccc(C(=O)NC)cc1)C[C@@H](C)N(C(=O)c1ccc(Br)c(C(F)(F)F)c1)C2 [Compound 6] | < 0.05 | > 0.5
7 | C=C[C@H](C)Nc1nc2c(c(=O)n1-c1ccn3c(C)nnc3c1)C[C@@H](C)N(C(=O)c1ccc(Br)c(C(F)(F)F)c1)C2 [Compound 36, (6R)-7-[4-bromo-3-(trifluoromethyl)benzoyl]-6-methyl-2-[[(1S)-1-methylallyl]amino]-3-(3-methyl-[1,2,4]triazolo[4,3-a]pyridin-7-yl)-6,8-dihydro-5H-pyrido[3,4-d]pyrimidin-4-one] | < 0.05 | > 50
8 | C=CC(Nc1nc2c(c(=O)n1-c1ccc(C(=O)NC)cc1)C[C@@H](C)N(C(=O)c1ccc(Br)c(C(F)(F)F)c1)C2)C1CC1 (stereo partly drawn) [Compound 11a] | < 0.05 | > 50
9 | C=C[C@H](C)Nc1nc2c(c(=O)n1-c1cnc(C(=O)NC)c(Cl)c1)C[C@@H](C)N(C(=O)c1ccc(Br)c(C(F)(F)F)c1)C2 [Compound 42, 5-[(6R)-7-[4-bromo-3-(trifluoromethyl)benzoyl]-6-methyl-2-[[(1S)-1-methylallyl]amino]-4-oxo-6,8-dihydro-5H-pyrido[3,4-d]pyrimidin-3-yl]-3-chloro-N-methyl-pyridine-2-carboxamide] | < 0.05 | > 50
10 | CNC(=O)c1ccc(-n2c(NCC=C(C)C)nc3c(c2=O)C[C@@H](C)N(C(=O)c2ccc(Br)c(C(F)(F)F)c2)C3)cc1 [Compound 7] | < 0.05 | 7.35
11 | C=C[C@H](C)Nc1nc2c(c(=O)n1-c1cc(F)c3c(c1)ncn3C)C[C@@H](C)N(C(=O)c1ccc(Br)c(C(F)(F)F)c1)C2 [Compound 48, (6R)-7-[4-bromo-3-(trifluoromethyl)benzoyl]-3-(7-fluoro-1-methyl-benzimidazol-5-yl)-6-methyl-2-[[(1S)-1-methylallyl]amino]-6,8-dihydro-5H-pyrido[3,4-d]pyrimidin-4-one] | < 0.05 | 26
12 | C=CC(Nc1nc2c(c(=O)n1-c1ccc(C(=O)NC)cc1)C[C@@H](C)N(C(=O)c1ccc(Br)c(C(F)(F)F)c1)C2)C1CCC1 (stereo partly drawn) [Compound 15] | < 0.05 | > 0.5
13 | C=C[C@H](C)Nc1nc2c(c(=O)n1-c1cc(C(=O)NC)n(C)n1)C[C@@H](C)N(C(=O)c1ccc(Br)c(C(F)(F)F)c1)C2 [Compound 9, 3-((R)-7-(4-bromo-3-(trifluoromethyl)benzoyl)-2-(((S)-but-3-en-2-yl)amino)-6-methyl-4-oxo-5,6,7,8-tetrahydropyrido[3,4-d]pyrimidin-3(4H)-yl)-N,1-dimethyl-1H-pyrazole-5-carboxamide] | < 0.05 | > 50
14 | C=C[C@H](C)Nc1nc2c(c(=O)n1-c1ccc3c(ncn3C)n1)C[C@@H](C)N(C(=O)c1ccc(Br)c(C(F)(F)F)c1)C2 [Compound 40, (6R)-7-[4-bromo-3-(trifluoromethyl)benzoyl]-6-methyl-2-[[(1S)-1-methylallyl]amino]-3-(1-methylimidazo[4,5-b]pyridin-5-yl)-6,8-dihydro-5H-pyrido[3,4-d]pyrimidin-4-one] | < 0.05 | > 50
15 | C=C[C@H](C)Nc1nc2c(c(=O)n1-c1cnc3c(ncn3C)n1)C[C@@H](C)N(C(=O)c1ccc(Br)c(C(F)(F)F)c1)C2 [Compound 46, (6R)-7-[4-bromo-3-(trifluoromethyl)benzoyl]-6-methyl-2-[[(1S)-1-methylallyl]amino]-3-(1-methylimidazo[4,5-b]pyrazin-5-yl)-6,8-dihydro-5H-pyrido[3,4-d]pyrimidin-4-one] | < 0.05 | > 50
16 | C=CC1(Nc2nc3c(c(=O)n2-c2ccc(C(=O)NC)cc2)C[C@@H](C)N(C(=O)c2ccc(Br)c(C(F)(F)F)c2)C3)CCC1 [Compound 8] | < 0.05 | 7.33
17 | C=C[C@H](C)Nc1nc2c(c(=O)n1-c1ccc(OC[C@@H](C)O)cn1)C[C@@H](C)N(C(=O)c1ccc(Br)c(C(F)(F)F)c1)C2 [Compound 39, (6R)-7-[4-bromo-3-(trifluoromethyl)benzoyl]-3-[5-[(2R)-2-hydroxypropoxy]-2-pyridyl]-6-methyl-2-[[(1S)-1-methylallyl]amino]-6,8-dihydro-5H-pyrido[3,4-d]pyrimidin-4-one] | < 0.05 | 28.1
18 | C=C[C@H](C)Nc1nc2c(c(=O)n1-c1ccc(OC3CC3)cc1)C[C@@H](C)N(C(=O)c1ccc(Br)c(C(F)(F)F)c1)C2 [Compound 12, (R)-7-(4-bromo-3-(trifluoromethyl)benzoyl)-2-((S)-but-3-en-2-ylamino)-3-(4-cyclopropoxyphenyl)-6-methyl-5,6,7,8-tetrahydropyrido[3,4-d]pyrimidin-4(3H)-one] | < 0.05 | > 50
19 | C=CC(C)Nc1nc2c(c(=O)n1-c1ccc(C(=O)NC)cc1)C[C@@H](C)N(C(=O)c1ccc(Br)c(C(F)(F)F)c1)C2 (single isomer, unassigned) [Compound 2a] | < 0.05 | > 0.5
20 | C=CC(C)N(C)c1nc2c(c(=O)n1-c1ccc(C(=O)NC)cc1)C[C@@H](C)N(C(=O)c1ccc(Br)c(C(F)(F)F)c1)C2 (stereo partly drawn) [Compound 10a] | < 0.05 | > 50
21 | C=C[C@H](C)Nc1nc2c(c(=O)n1-c1cc(C)c3c(c1)ncn3C)C[C@@H](C)N(C(=O)c1ccc(Br)c(C(F)(F)F)c1)C2 [Compound 47, (6R)-7-[4-bromo-3-(trifluoromethyl)benzoyl]-3-(1,7-dimethylbenzimidazol-5-yl)-6-methyl-2-[[(1S)-1-methylallyl]amino]-6,8-dihydro-5H-pyrido[3,4-d]pyrimidin-4-one] | < 0.05 | 23.7
